From patent US20260374809A1, “COMPOUNDS USEFUL FOR THE TREATMENT AND/OR CARE OF THE SKIN, HAIR, NAILS AND/OR MUCOUS MEMBRANES” (Lubrizol Advanced Materials, Inc., priority 2022, published 2026) come the findings set out here.

Where a SMILES comes first, the peptide text is derived from it. [ ]: non-standard residue; d: D form. The star is where a group is joined. Palmitoyl = CCCCCCCCCCCCCCCC(=O)*

The subject of the first experiment is Musclebind Like Protein 1 (MBNL1). As to the kind of experiment: MBNL1 protein expression in human skeletal muscle cells (hSKMC), HTRF. In kind it is cell-based. The note with it: 0.5 mg/ml, 48 hours, relative to basal control. The procedure:
Musclebind Like Protein 1 (MBNL1) in Human Skeletal Muscle Cells (hSKMC)
An increase of MBNL-1 in muscle cells helps maintaining the tone of facial skin muscles. Thus, compounds able to enhance MBNL-1 can be used as a good approach for cosmetic treatment of sagging facial appearance.
Human skeletal muscle cells (hSKMC) were cultured at 100,000 cells in T25 flasks with growth medium. After 4 days, cells reached around 80% of confluency and were seeded at 150,000 cells per well in 12-well plates in growth medium. Cells were incubated for 72 hours and then they were changed to differentiation medium and incubated during 48 hours. At the end of this period, cells were treated with defined peptides (0.5 mg/ml) and with medium alone for control conditions during 48 hours in differentiation medium. Cells were also treated with 2 mM of ketoprofen as a positive control.
After the incubation period, cells were lysed and frozen at −80 °C. For total protein quantification protein extract was measured by Bicinchoninic Acid (BCA) method. MBNL1 protein detection was performed by Homogeneous Time Resolved Fluorescence (HTRF) technology. Normalization of MBNL1 levels were performed by total protein quantification for each condition. Results are expressed as a relative MBNL1 protein level respect to control conditions. At least 3 replicates were carried out per condition.
Background: Time-resolved FRET reads energy transfer from a long-lived donor to a nearby acceptor.
As for `CC(C)C[C@H](N)C(=O)N1CCC[C@H]1C(=O)N[C@H](C(=O)N[C@H](C(N)=O)[C@@H](C)O)C(C)C` [PEP-2, H-Leu-Pro-Val-Thr-NH2] (H-LPVT-NH2), the “% MBNL1 vs Basal control” value is 183.2%.
With `CCCCCCCCCCCCCCCC(=O)N[C@@H](CC(C)C)C(=O)N1CCC[C@H]1C(=O)N[C@H](C(=O)N[C@H](C(=O)O)[C@@H](C)O)C(C)C` [PEP-3, Palm-Leu-Pro-Val-Thr-OH] (Palmitoyl-LPVT-OH), the “% MBNL1 vs Basal control” value is 160.4%.
On the same count and under the same terms, under `CC(=O)N[C@@H](CC(C)C)C(=O)N1CCC[C@H]1C(=O)N[C@H](C(=O)N[C@H](C(=O)O)[C@@H](C)O)C(C)C` [PEP-4, Ac-Leu-Pro-Val-Thr-OH] (Ac-LPVT-OH) stands 131.3%; under `CC(=O)N[C@@H](CC(C)C)C(=O)N1CCC[C@H]1C(=O)N[C@H](C(=O)N[C@H](C(N)=O)[C@@H](C)O)C(C)C` [PEP-5, Ac-Leu-Pro-Val-Thr-NH2] (Ac-LPVT-NH2), 213.7%; under `CC(C)C[C@H](N)C(=O)N[C@@H](C)C(=O)N[C@H](C(=O)N[C@H](C(=O)O)[C@@H](C)O)C(C)C` [PEP-6, H-Leu-Ala-Val-Thr-OH] (H-LAVT-OH), 157.0%.
With `CC[C@H](C)[C@H](NC(=O)[C@@H]1CCCN1C(=O)[C@@H](N)CC(C)C)C(=O)N[C@H](C(=O)O)[C@@H](C)O` [PEP-7, H-Leu-Pro-Ile-Thr-OH] (H-LPIT-OH), the “% MBNL1 vs Basal control” value amounted to 156.3%.
The same measure, in the same setting: under `CC(C)[C@H](N)C(=O)N1CCC[C@H]1C(=O)N[C@H](C(=O)N[C@H](C(=O)O)[C@@H](C)O)C(C)C` [PEP-8, H-Val-Pro-Val-Thr-OH] (H-VPVT-OH) stands 131.3%; under `CC(C)C[C@H](N)C(=O)NCC(=O)N[C@H](C(=O)N[C@H](C(=O)O)[C@@H](C)O)C(C)C` [PEP-9, H-Leu-Gly-Val-Thr-OH] (H-LGVT-OH), 122.4%; under `CC(C)C[C@H](NC(=O)[C@@H]1CCCN1C(=O)[C@@H](N)CC(C)C)C(=O)N[C@H](C(=O)O)[C@@H](C)O` [PEP-10, H-Leu-Pro-Leu-Thr-OH] (H-LPLT-OH), 222.0%.
`CC(C)C[C@H](N)C(=O)N1CCC[C@H]1C(=O)N[C@H](C(=O)O)C(C)C` [PEP-12, H-Leu-Pro-Val-OH] (H-Leu-Pro-Val-OH): the “% MBNL1 vs Basal control” value worked out at 177.8%.
On to `CC[C@H](C)[C@H](N)C(=O)N1CCC[C@H]1C(=O)N[C@H](C(=O)N[C@H](C(=O)O)[C@@H](C)O)[C@@H](C)CC` [PEP-13, H-Ile-Pro-Ile-Thr-OH] (H-IPIT-OH), for which the “% MBNL1 vs Basal control” value amounted to 133.3%.
Turning to “H-ALPVT-OH [PEP-11, H-Ala-Leu-Pro-Val-Thr-OH]”, the “% MBNL1 vs Basal control” value was 259.0%.

The subject of the next experiment is Human dermal fibroblast (HDF). As to the kind of experiment: Collagen contraction assay with human dermal fibroblasts in collagen gel. The experiment is classed as cell-based. The note with it: 0.01 mg/ml; basal control = 100, positive control with MES = 159.7. An excerpt: It is known that a remarkable change in the mechanical properties of the skin with aging is due to reduced contractile capacity as well as reduced migration activity of fibroblasts. Healthy fibroblasts induce contraction of the collagen network through physical interactions with collagen fibers. The collagen network is essential for maintaining the firmness of the skin. The collagen contraction assay is a well-known experimental approach to measuring the cell-induced contraction of the extracellular matrix. In this assay, the capacity of fibroblasts, embedded in a collagen-based gel, to reduce the gel diameter is evaluated.
By improving the contractile forces, the mechanical tension can be improved, which can be associated to “lifting” effect at the scale of fibroblasts.
The microcurrent system was built by coupling gold electrodes (in order to avoid medium oxidation leading to cell death when current goes through) to opposite sides of 60 mm Petri dishes (separated by 4 cm). When a voltage is applied, an electric field generates between opposite positive and negative poles and current passes through the culture. During the stimulation time (2 hours), each of the 60 mm Petri dishes is connected to a voltage source that allows regulating the amount of current that passes through each of them. For these experiments, a […] current (which corresponds to approx. 67 mV/mm) was used.
Human dermal fibroblast (HDF) cell culture and expansion: Cells were thawed in T75 flasks and the growth medium was changed every 2 days of cell culture. After 7 days, cells were expanded to obtain a total amount of 7×10^6 cells to be used in the experiments.
Once finished the expansion, cultures are trypsinized and seeded at 3×10^5 cells/60 mm Petri up to a total of 10 dishes per replicate. These ten dishes correspond to one experiment (Control/-MES vs+MES) at a specific concentration. Peptide treatment was performed at 0.01 mg/ml.
After an overnight (O/N) incubation to allow cell attachment, each Petri dish is treated at the corresponding concentration with 4 ml of specific medium for a total of 24 hours in both conditions (without MES and with MES). Peptide treatment on the dishes that are not stimulated with microcurrent is initiated 2 hours in advance, and their passage into 3D cultures occurs at the same time as the microcurrent stimulation of the other dishes. […]
Each 3D culture is prepared by mixing collagen solution with the culture medium corresponding to each of the conditions (without peptide or with peptide). […] Images of collagen gel diameter are taken of each well at 24 hours post detachment and analyzed by ImageJ. […]
[formula] • An initial area is stablished. […] Area t=0 gel […]1.86 cm^2 (Area of a well in a 24-well plate) • Quantification of Area at t=x; Ax. […]
In the case of `CSCC[C@H](NC(=O)[C@@H](CCC(N)=O)NC(=O)[C@H](CCCNC(=N)N)NC(=O)[C@H](CCCNC(=N)N)NC(C)=O)C(=O)N[C@@H](CCC(=O)O)C(=O)N[C@@H](CCC(=O)O)C(N)=O` [Ac-Arg-Arg-D-Gln-Met-Glu-Glu-NH2] (Ac-RR[dQ]MEE-NH2), the “Collagen contraction, MEAN (comparative peptides)” value came to 82.5.
Regarding `CC(=O)N[C@@H](CC(=O)O)C(=O)N[C@H](C(=O)N[C@@H](Cc1ccc(O)cc1)C(=O)N[C@@H](CCCCN)C(N)=O)C(C)C` [Ac-Asp-Val-Tyr-Lys-NH2] (Ac-DVYK-NH2), the “Collagen contraction, MEAN (comparative peptides)” value amounted to 91.6.
Same read-out and setting: under “H-ALKPNT-NH2 [H-Ala-Leu-Lys-Pro-Asn-Thr-NH2]” stands 101.4.

A further experiment concerns eyebrow. As to the kind of experiment: In vivo eyebrow lifting effect in Caucasian volunteers (FrameScan image analysis). The settings on record: 28 days; result in words. Further details: species or system human. The procedure:
The study was carried out for 28 days. Forty-six (46) volunteers aged between 40 and 65 years old were included in the study and were divided into two groups. The first group included 36 volunteers (31 women and 5 men) which applied the composition described in Example 5 on half face and placebo (same composition without peptide) on the other half, twice a day for 28 days. The second group of 10 volunteers (9 women and 1 man) used a microcurrent device (Nuface®) with an activator gel without active ingredients once a day. Volunteers using the microcurrent device were trained on how to apply the activator gel and how to use the device to standardize its application among them. […]
Volunteers' facial images were acquired at initial time and after 28 days of product application. The efficacy of the product was assessed by the measurement of a diagonal distance between eyelashes and eyebrows obtained from image analysis with FrameScan® software. The diagonal distance was calculated by drawing a horizontal line between a point at the start of the eyelashes and a point at the end of eyelashes (the eyelashes' line). […]
A study was carried out for 28 days for determining the lifting effect of Ac-Asp-Val-Tyr-Lys-NH2 (not according to the invention). […] The eyebrow lifting effect was determined as disclosed in Example 12.
With `CC(=O)N[C@@H](CC(=O)O)C(=O)N[C@H](C(=O)N[C@@H](Cc1ccc(O)cc1)C(=O)N[C@@H](CCCCN)C(N)=O)C(C)C` [Ac-Asp-Val-Tyr-Lys-NH2] (Ac-DVYK-NH2), the Lifting effect entry is “did not have a lifting effect”.
